Data from PMC8626469, “Helicobacter pylori FabX contains a [4Fe-4S] cluster essential for unsaturated fatty acid synthesis” (Nature Communications, 2021).

Biological target: T1, FabX (Helicobacter pylori, UniProt A0A0B2E3F3)
T1 construct: gene C2842_03950; full length, 363 residues; expressed in E. coli BL21(DE3) Rosetta; monomer in the asymmetric unit; holds FMN and a [4Fe-4S] cluster
T1 sequence (A0A0B2E3F3 1-363): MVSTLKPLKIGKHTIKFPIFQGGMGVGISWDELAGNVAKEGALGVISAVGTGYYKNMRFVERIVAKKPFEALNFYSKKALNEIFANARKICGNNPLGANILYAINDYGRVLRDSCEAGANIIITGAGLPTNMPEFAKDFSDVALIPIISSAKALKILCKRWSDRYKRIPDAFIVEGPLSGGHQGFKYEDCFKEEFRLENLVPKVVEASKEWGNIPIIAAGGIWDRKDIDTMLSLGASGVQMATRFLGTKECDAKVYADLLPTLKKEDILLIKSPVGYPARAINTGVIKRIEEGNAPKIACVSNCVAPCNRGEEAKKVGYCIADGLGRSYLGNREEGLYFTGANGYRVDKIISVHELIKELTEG
Test: X-ray crystal structure, […] Å
Assay type: binding
Settings: noncovalent in TIM-barrel core; also present in complexes with holo-ACP and octanoyl-ACP

Cc1cc2nc3c(=O)[nH]c(=O)nc-3n(C[C@H](O)[C@H](O)[C@H](O)COP(=O)(O)O)c2cc1C [FMN]
X-ray crystal structure, 1.7 Å: a FMN molecule is noncovalently bound inside the core
